Our source for the Kd values is patent US20240066136A1, “MODIFIED PROTEINS AND PROTEIN DEGRADERS” (Cullgen (Shanghai), Inc., priority 2020, published 2024).

Molecules are shown by their SMILES. Like-named read-outs stand apart in the source and are kept apart here.

The target in the test is Human DDB1 (Homo sapiens (Human), UniProt Q16531). The test can be described thus: Surface plasmon resonance (SPR) binding assay to immobilized His-DDB1. Particulars: SPR. On the procedure:
The binding affinities of heterobifunctional compounds to DDB1 were determined by SPR assay. Purified His-DDB1 proteins were immobilized on a CM5 sensor chip, and a dose range of compound solutions were injected in multi-cycle kinetic format. Data were fit to steady state model and gave equivalent dissociation constants (KD).
Protein Expression and Purification. Human DDB1 (UniPro: Q16531) coding sequences were cloned into pFastBacHTB vector and were expressed in High5 cells using Bac-to-Bac baculovirus expression system (Thermo Fisher Scientific). […] DDB1 proteins were obtained from supernatant of cell lysates and purified through sequential application of Ni affinity (Ni-NTA column. Bio-Rad), and size-exclusion (Superdex 200 16/600GL column, GE Healthcare) column chromatography.
Surface plasmon resonance (SPR) binding assay. All SPR studies were performed on a Biacore X100 plus or T200 instrument (GE Healthcare). Immobilization of purified His-DDB1 was carried out at 25° C. using a CM5 sensor chip. The surface was pre-equilibrated in HBS-EP running buffer (10 mM HEPES, pH7.4, 150 mM NaCl, 3 mM EDTA, 0.05% P20), then activated with EDC/NHS. His-DDB1 proteins were immobilized by amine coupling to a density of 11,000-13,000 resonance units (RUs) on flow cell FC2, whereas flow cell FC1 was used as reference. Both DDB1 immobilized and reference surfaces were deactivated with 1M ethanolamine.
All interaction experiments were performed at 25° C. […] Compound Solutions were injected individually in multi-cycle kinetic format without regeneration (flow rate […], association time 120 s, dissociation time 120 s). Sensorgrams from reference surfaces and blank injections were subtracted from the raw data (double-referencing) and the data was solvent-corrected prior to analysis. All data were fit to steady state affinity model using Biacore Evaluation Software and gave equivalent dissociation constants (KD).
On the technique in general: Surface plasmon resonance follows binding to a sensor surface in real time, without labels.

[1] abbreviates: steady state affinity model, 25° C., read-out: Binding (DDB1 binder activities, Kd).
The mark [2] stands for this setting: DDB1 binding moieties with linkers and/or target protein binding moiety, read-out: Binding (Kd).

Human DDB1, sequence (Q16531 whole entry): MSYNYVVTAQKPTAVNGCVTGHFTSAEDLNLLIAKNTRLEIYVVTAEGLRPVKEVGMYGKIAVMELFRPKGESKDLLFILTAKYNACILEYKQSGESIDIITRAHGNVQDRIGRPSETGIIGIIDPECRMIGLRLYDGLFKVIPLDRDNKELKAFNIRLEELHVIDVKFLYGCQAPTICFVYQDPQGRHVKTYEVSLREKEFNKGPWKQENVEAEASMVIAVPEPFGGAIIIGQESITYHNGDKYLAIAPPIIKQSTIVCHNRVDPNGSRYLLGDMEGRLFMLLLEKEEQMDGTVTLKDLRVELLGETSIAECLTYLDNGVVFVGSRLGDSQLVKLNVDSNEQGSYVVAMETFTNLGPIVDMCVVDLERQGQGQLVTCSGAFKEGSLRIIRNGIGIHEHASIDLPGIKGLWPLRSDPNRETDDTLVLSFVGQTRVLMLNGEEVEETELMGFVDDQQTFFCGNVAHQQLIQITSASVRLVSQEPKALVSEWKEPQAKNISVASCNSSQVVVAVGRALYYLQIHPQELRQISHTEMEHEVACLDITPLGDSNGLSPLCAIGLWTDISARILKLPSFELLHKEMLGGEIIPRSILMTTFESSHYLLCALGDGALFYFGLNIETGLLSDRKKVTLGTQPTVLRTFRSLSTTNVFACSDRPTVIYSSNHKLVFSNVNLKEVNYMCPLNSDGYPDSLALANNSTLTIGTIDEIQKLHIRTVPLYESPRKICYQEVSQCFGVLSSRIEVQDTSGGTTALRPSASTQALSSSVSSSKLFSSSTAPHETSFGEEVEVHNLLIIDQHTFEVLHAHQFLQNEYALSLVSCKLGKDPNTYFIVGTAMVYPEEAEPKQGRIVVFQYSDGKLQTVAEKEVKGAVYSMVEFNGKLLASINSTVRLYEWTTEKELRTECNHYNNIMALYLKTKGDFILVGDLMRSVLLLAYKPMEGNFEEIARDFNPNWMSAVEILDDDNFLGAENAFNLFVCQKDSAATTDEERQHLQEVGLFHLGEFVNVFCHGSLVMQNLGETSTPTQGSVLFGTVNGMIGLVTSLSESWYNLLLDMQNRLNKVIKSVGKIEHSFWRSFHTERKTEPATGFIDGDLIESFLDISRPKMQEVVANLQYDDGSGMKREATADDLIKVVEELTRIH

What is called Kd is the free concentration of one partner at which half of the binding sites on the other are occupied at equilibrium, for simple one-to-one binding. Turning to `CCCCNc1ccc(C(=O)Nc2nc(Br)c([N+](=O)[O-])s2)c(-c2ccccc2)c1` [B-113, N-(4-Bromo-5-nitrothiazol-2-yl)-5-(butylamino)-[1,1′-biphenyl]-2-carboxamide], the Kd under setting [1] lay within 20 to 100 µM.

As to `COc1ccccc1C(=O)Nc1ncc([N+](=O)[O-])s1` [B-73, 2-methoxy-N-(5-nitrothiazol-2-yl)benzamide], under setting [1], the Kd is greater than 100 µM.

As for `CC(=O)Nc1ccccc1C(=O)Nc1ccc(C(C)C)s1` [B-129, 2-Acetamido-N-(5-isopropylthiophen-2-yl)benzamide], the Kd under setting [1] was in the range of 20 to 100 µM.

As to `CCCCNc1ccc(C(=O)Nc2nc(C(F)(F)F)c([N+](=O)[O-])s2)c(-c2ccccc2)c1` [B-114, 5-(Butylamino)-N-(5-nitro-4-(trifluoromethyl)thiazol-2-yl)-[1,1′-biphenyl]-2-carboxamide], the Kd under setting [1] was less than 20 µM.

Take `Cc1cc(N2CCOCC2)ccc1C(=O)Nc1ncc([N+](=O)[O-])s1` [B-162, 2-Methyl-4-morpholino-N-(5-nitrothiazol-2-yl)benzamide]: the Kd under setting [1] is greater than 100 µM.

On to `Cc1nc(NC(=O)c2ccccc2NC(=O)CCOCCOCCOCCN)sc1[N+](=O)[O-]` [BL-2, 2-(3-(2-(2-(2-Aminoethoxy)ethoxy)ethoxy)propanamido)-N-(4-methyl-5-nitrothiazol-2-yl)benzamide], for which, under setting [2], the Kd was 20 to 100 µM.

In the case of `NCCOCCOCCOCCC(=O)Nc1ccccc1C(=O)Nc1ncc([N+](=O)[O-])s1` [BL-3, 2-(3-(2-(2-(2-Aminoethoxy)ethoxy)ethoxy)propanamido)-N-(5-nitrothiazol-2-yl)benzamide], the Kd under setting [2] was in the range of 20 to 100 µM.

On to `CCCCNc1ccc(NC(C)=O)c(C(=O)Nc2ncc([N+](=O)[O-])s2)c1` [B-149, 2-Acetamido-5-(butylamino)-N-(5-nitrothiazol-2-yl)benzamide], for which the Kd under setting [1] was in the range of 20 to 100 µM.

With `CCOc1ccccc1C(=O)N(C)c1ncc([N+](=O)[O-])s1` [B-102, 2-Ethoxy-N-methyl-N-(5-nitrothiazol-2-yl)benzamide], the Kd under setting [1] is less than 20 µM.

Take `O=C(Nc1ncc([N+](=O)[O-])s1)c1ccccc1OC1CC1` [B-75, 2-Cyclopropoxy-N-(5-nitrothiazol-2-yl)benzamide]: the Kd under setting [1] was greater than 100 µM.

For the compound `CC(=O)Oc1ccccc1C(=O)Nc1ncc([N+](=O)[O-])s1` [B-1, 2-((5-nitrothiazol-2-yl)carbamoyl)phenylacetate], under setting [1], the dissociation constant Kd lay in the range of 20 to 100 µM.

As for `CC(=O)Nc1ccccc1C(=O)Nc1ccc(-c2ccccc2)s1` [B-130, 2-Acetamido-N-(5-phenylthiophen-2-yl)benzamide], the equilibrium dissociation constant (Kd) under setting [1] is greater than 100 µM.

For `CC(C)c1ccccc1C(=O)Nc1ncc([N+](=O)[O-])s1` [B-84, 2-Isopropyl-N-(5-nitrothiazol-2-yl)benzamide], the Kd under setting [1] was less than 20 µM.

With `Cc1cc(Cl)ccc1C(=O)Nc1ncc([N+](=O)[O-])s1` [B-150, 4-chloro-2-methyl-N-(5-nitrothiazol-2-yl)benzamide], under setting [1], the Kd is 20 to 100 µM.

On to `CCCCNc1ccc(C(=O)Nc2ncc([N+](=O)[O-])s2)c(-c2ccccc2)c1` [B-110, 5-(Butylamino)-N-(5-nitrothiazol-2-yl)-[1,1′-biphenyl]-2-carboxamide], for which, under setting [1], the Kd is less than 20 µM.

As to `Cc1cc(N(C)C)ccc1C(=O)Nc1ncc([N+](=O)[O-])s1` [B-167, 4-(Dimethylamino)-2-methyl-N-(5-nitrothiazol-2-yl)benzamide], the Kd under setting [1] was greater than 100 µM.

As for `CC(=O)Nc1ccccc1C(=O)Nc1ncc(C(C)C)s1` [B-43, 2-Acetamido-N-(5-isopropylthiazol-2-yl)benzamide], under setting [1], the Kd is 20 to 100 µM.

Take `CNc1ccc(C(=O)Nc2ncc([N+](=O)[O-])s2)c(C)c1` [B-166, 2-Methyl-4-(methylamino)-N-(5-nitrothiazol-2-yl)benzamide]: the Kd under setting [1] lay within 20 to 100 µM.

On to `Cc1cc(C(C)C)ccc1C(=O)Nc1ncc([N+](=O)[O-])s1` [B-164, 4-Isopropyl-2-methyl-N-(5-nitrothiazol-2-yl)benzamide], for which the Kd under setting [1] was greater than 100 µM.

Consider `CC(=O)Nc1ccccc1C(=O)Nc1nc(S(C)(=O)=O)cs1` [B-48, 2-Acetamido-N-(4-(methylsulfonyl)thiazol-2-yl)benzamide], for which, under setting [1], the Kd is greater than 100 µM.

For the compound `CC(C)Nc1ccccc1C(=O)Nc1ncc([N+](=O)[O-])s1` [B-70, 2-(Isopropylamino)-N-(5-nitrothiazol-2-yl)benzamide], under setting [1], the Kd was less than 20 µM.

In the case of `Cc1cnc(NC(=O)c2ccccc2C)s1` [B-175, 2-Methyl-N-(5-methylthiazol-2-yl)benzamide], under setting [1], the Kd was less than 20 µM.

For `O=C(Nc1ncc([N+](=O)[O-])s1)c1ccccc1C1CC1` [B-85, 2-cyclopropyl-N-(5-nitrothiazol-2-yl)benzamide], the Kd under setting [1] fell in the range of 20 to 100 µM.

Turning to `CC(C)Oc1ccccc1C(=O)Nc1ncc([N+](=O)[O-])s1` [B-74, 2-Isopropoxy-N-(5-nitrothiazol-2-yl)benzamide], the dissociation constant Kd under setting [1] is less than 20 µM.

Regarding `CC(Nc1nc(-c2ccco2)nc2c1CCNCC2)c1nnc(N)s1` (centres unmarked) [B-138, 5-(1-((2-(furan-2-yl)-6,7,8,9-tetrahydro-5H-pyrimido[4,5-d]azepin-4-yl)amino)ethyl)-1,3,4-thiadiazol-2-amine], the Kd under setting [1] was in the range of 20 to 100 µM.

`CC(=O)Oc1ccccc1C(=O)Nc1nc(C)c([N+](=O)[O-])s1` [B-9, 2-((4-Methyl-5-nitrothiazol-2-yl)carbamoyl)phenyl acetate]: the Kd under setting [1] lay within 20 to 100 µM.

In the case of `CC(=O)Nc1ccccc1C(=O)Nc1nc(-c2ccccc2)c([N+](=O)[O-])s1` [B-34, 2-acetamido-N-(5-nitro-4-phenylthiazol-2-yl)benzamide], the Kd under setting [1] was less than 20 µM.

Take `CC(=O)Nc1cc(NCCNC(=O)C[C@@H]2N=C(c3ccc(Cl)cc3)c3c(sc(C)c3C)-n3c(C)nnc32)ccc1C(=O)Nc1nc(C)c([N+](=O)[O-])s1` [D-26, (S)-2-Acetamido-4-((2-(2-(4-(4-chlorophenyl)-2,3,9-trimethyl-6H-thieno[3,2-f][1,2,4]triazolo[4,3-a][1,4]diazepin-6-yl)acetamido)ethyl)amino)-N-(4-methyl-5-nitrothiazol-2-yl)benzamide]: the Kd under setting [2] fell in the range of 20 to 100 µM.

Take `CCOc1ccccc1C(=O)Nc1ncc([N+](=O)[O-])s1` [B-7, 2-Ethoxy-N-(5-nitrothiazol-2-yl)benzamide]: the Kd under setting [1] is less than 20 µM.

For the compound `Cc1ccc(C)c(C(=O)Nc2ncc([N+](=O)[O-])s2)c1` [B-174, 2,5-Dimethyl-N-(5-nitrothiazol-2-yl)benzamide], the Kd under setting [1] was less than 20 µM.

Take `CCNc1cccc(OCC)c1C(=O)Nc1ncc([N+](=O)[O-])s1` [B-168, 2-Ethoxy-6-(ethylamino)-N-(5-nitrothiazol-2-yl)benzamide]: the Kd under setting [1] is greater than 100 µM.

For `CC(=O)Nc1ccccc1C(=O)Nc1ccc([N+](=O)[O-])cc1` [B-125, 2-Acetamido-N-(4-nitrophenyl)benzamide], the Kd under setting [1] is less than 20 µM.

With `CC(=O)Nc1cc(NCCOCCOCCOCCOCCNC(=O)C[C@@H]2N=C(c3ccc(Cl)cc3)c3c(sc(C)c3C)-n3c(C)nnc32)ccc1C(=O)Nc1nc(C)c([N+](=O)[O-])s1` [D-35, (S)-2-Acetamido-4-((1-(4-(4-chlorophenyl)-2,3,9-trimethyl-6H-thieno[3,2-f][1,2,4]triazolo[4,3-a][1,4]diazepin-6-yl)-2-oxo-6,9,12,15-tetraoxa-3-azaheptadecan-17-yl)amino)-N-(4-methyl-5-nitrothiazol-2-yl)benzamide], the Kd under setting [2] fell in the range of 20 to 100 µM.

As to `Cc1cc(F)ccc1C(=O)Nc1ncc([N+](=O)[O-])s1` [B-171, 4-Fluoro-2-methyl-N-(5-nitrothiazol-2-yl)benzamide], the Kd under setting [1] is 20 to 100 µM.

As for `O=C1CCCCN1c1ncc([N+](=O)[O-])s1` [B-99, 1-(5-Nitrothiazol-2-yl)piperidin-2-one], the Kd under setting [1] lay within 20 to 100 µM.

As to `CCCCNc1ccc(C(=O)Nc2ccc([N+](=O)[O-])s2)c(-c2ccccc2)c1` [B-135, 5-(Butylamino)-N-(5-nitrothiophen-2-yl)-[1,1′-biphenyl]-2-carboxamide], the dissociation constant Kd under setting [1] was 20 to 100 µM.

`CCCCNc1ccc(C(=O)Nc2ncc(Br)s2)c(-c2ccccc2)c1` [B-117, N-(5-Bromothiazol-2-yl)-5-(butylamino)-[1,1′-biphenyl]-2-carboxamide]: under setting [1], the Kd is 20 to 100 µM.

For the compound `CC(=O)Nc1ccccc1C(=O)Nc1nc(C(F)(F)F)c([N+](=O)[O-])s1` [B-31, 2-Acetamido-N-(5-nitro-4-(trifluoromethyl)thiazol-2-yl)benzamide], under setting [1], the Kd lay within 20 to 100 µM.

As to `Cc1cc(-c2ccccc2)ccc1C(=O)Nc1ncc([N+](=O)[O-])s1` [B-153, 3-Methyl-N-(5-nitrothiazol-2-yl)-[1,1′-biphenyl]-4-carboxamide], the Kd under setting [1] was in the range of 20 to 100 µM.

For the compound `O=C(Nc1ncc([N+](=O)[O-])s1)c1ccccc1NC1CC1` [B-71, 2-(cyclopropylamino)-N-(5-nitrothiazol-2-yl)benzamide], under setting [1], the Kd lay within 20 to 100 µM.

For `O=C1CCCCCCN1c1ncc([N+](=O)[O-])s1` [B-101, 1-(5-Nitrothiazol-2-yl)azocan-2-one], under setting [1], the Kd lay in the range of 20 to 100 µM.
